From publication PMC7247818, “Demonstration of Binding Induced Structural Plasticity in a SH2 Domain” (Frontiers in Molecular Biosciences, 2020)
Where a SMILES comes first, the peptide text is derived from it.

Tests used:
Conditions in all cases: 10°C
N-SH2 domain of PI3K, WT = target: T1, N-SH2 domain of PI3K, WT (Homo sapiens, UniProt P27986); experiment: Stopped-flow binding kinetics, N-SH2 WT
T1 construct: made in house
Procedure: (§1) N-SH2 wild-type and all the site-directed variants were expressed and purified as described previously ([Visconti et al., 2019]). All the mutants were obtained using a QuickChange Lightning Site-Directed Mutagenesis kit (Agilent technologies), accordingly to manufacturer instructions. Peptides with sequence TNSEDNpYVPMNPG mimicking wild-type Gab2 and TNSEDNpYVPANPG mimicking the M457A variant of Gab2 were purchased from GenScript Biotech Corporation.
(§2) Binding kinetics experiments were performed using a single-mixing SX-18 stopped-flow instrument (Applied Photophysics); all binding experiments were conducted in 50 mM Hepes pH 7.4 300 mM NaCl at 10°C. Excitation was at 280 nm and emission was collected using a […] cut-off glass filter. Pseudo-first order binding experiments were performed mixing a constant concentration of dansylated Gab2_448–460 and Gab2_448–460 M457A (1 μM) vs. N-SH2 wt and its mutants at concentrations ranging from […]. For each N-SH2 concentration, usually 5 individual traces were averaged and in all cases the fluorescence time courses obtained was satisfactorily fitted by using a single exponential equation.
(§3) One of the aims of this study is to depict the molecular details of the interaction between the N-SH2 domain of PI3K and Gab2. A powerful strategy to achieve this goal relies on perturbing the system by producing conservative site-directed variants while monitoring the effect of mutations on the association and dissociation rate constants between the interacting partners (kon and koff respectively). Thus, we designed and successfully produced 21 site-directed variants of the N-SH2 domain and challenged them vs. a peptide mimicking the region of Gab2 ranging from residue 448–460 (Gab2_448–460), containing the pY-X-X-M motif that is specifically recognized by the N-SH2 domain ([Waksman et al., 1992]; [Songyang et al., 1993]). The choise of mutations was designed in analogy to phi-value analysis methodology in protein folding studies ([Fersht and Sato, 2004]). […] To monitor binding by fluorescence, a dansyl group was added at the N-terminus of the peptide. The binding reaction was monitored by stopped-flow experiments following the change in FRET signal, taking advantage of the two Trp residues on the N-SH2 domain in positions 12 and 14 as fluorescence donor and the dansyl group on Gab2_448–460 as acceptor. The experiments were performed in pseudo-first order conditions with Gab2_448–460 at fixed concentration of 1 μM rapidly mixed vs. large excess of N-SH2 wt and its variants, ranging from 4 to 14 μM, in buffer Hepes 50 mM, NaCl 300 mM, pH 7.4, at 10°C.
(§4) with kon being the slope of the line and koff the intercept with the y-axis. Since indirect calculation of koff obtained by extrapolation is associated with high experimental error, we performed displacement experiments to directly measure koff by challenging a pre-incubated complex of dansylated Gab2_448–460 and N-SH2 domain both at the concentration of 1 μM vs. a large excess of non-dansylated Gab2_448–460 (50 μM). Kinetic parameters extracted from data together with the calculated changes in activation and equilibrium free energies are reported in Table 1. Analysis of kinetic data highlights that T48S, L51A, and L59A variations cause a detectable decrease of the affinity of the domain for Gab2_448–460 of ∼10-fold, affecting both the kon and koff. […] Since L99 residue is part of the binding pocket, this dramatic effect on the binding affinity is expected.
(§5) SH2 domains bind ligands with a phosphorylated tyrosine in their sequence. The N-SH2 domain of PI3K is known to recognize a specific consensus sequences that present a methionine in position +3 in respect to the phosphotyrosine (M457 in Gab2). […]

[1] = target: T2, N-SH2 domain of PI3K, I17V variant (Homo sapiens, UniProt P27986, I338V); experiment: Stopped-flow binding kinetics, N-SH2 I17V
T2 construct: made in house
T2 sequence (P27986 333-428 I338V): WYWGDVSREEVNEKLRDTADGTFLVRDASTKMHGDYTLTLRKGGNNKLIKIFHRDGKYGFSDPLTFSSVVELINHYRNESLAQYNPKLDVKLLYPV
Procedure: as §1, §2, §3, §4, §5

[2] = target: T3, N-SH2 domain of PI3K, V22A variant (Homo sapiens, UniProt P27986, V343A); experiment: Stopped-flow binding kinetics, N-SH2 V22A
T3 construct: made in house
T3 sequence (P27986 333-428 V343A): as the sequence (P27986 333-428 I338V) above, with V6I, V11A counted along it
Procedure: as §1, §2, §3, §4, §5

[3] = target: T4, N-SH2 domain of PI3K, A30G variant (Homo sapiens, UniProt P27986, A351G); experiment: Stopped-flow binding kinetics, N-SH2 A30G
T4 construct: made in house
T4 sequence (P27986 333-428 A351G): as the sequence (P27986 333-428 I338V) above, with V6I, A19G counted along it
Procedure: as §1, §2, §3, §4, §5

[4] = target: T5, N-SH2 domain of PI3K, L35A variant (Homo sapiens, UniProt P27986, L356A); experiment: Stopped-flow binding kinetics, N-SH2 L35A
T5 construct: made in house
T5 sequence (P27986 333-428 L356A): as the sequence (P27986 333-428 I338V) above, with V6I, L24A counted along it
Procedure: as §1, §2
(§6) One of the aims of this study is to depict the molecular details of the interaction between the N-SH2 domain of PI3K and Gab2. […] To monitor binding by fluorescence, a dansyl group was added at the N-terminus of the peptide. The binding reaction was monitored by stopped-flow experiments following the change in FRET signal, taking advantage of the two Trp residues on the N-SH2 domain in positions 12 and 14 as fluorescence donor and the dansyl group on Gab2_448–460 as acceptor. […]
(§7) with kon being the slope of the line and koff the intercept with the y-axis. […] Kinetic parameters extracted from data together with the calculated changes in activation and equilibrium free energies are reported in Table 1. […]

[5] = target: T6, N-SH2 domain of PI3K, T48S variant (Homo sapiens, UniProt P27986, T369S); experiment: Stopped-flow binding kinetics, N-SH2 T48S
T6 construct: made in house
T6 sequence (P27986 333-428 T369S): as the sequence (P27986 333-428 I338V) above, with V6I, T37S counted along it
Procedure: as §1, §2, §6, §7

[6] = target: T7, N-SH2 domain of PI3K, T50S variant (Homo sapiens, UniProt P27986, T371S); experiment: Stopped-flow binding kinetics, N-SH2 T50S
T7 construct: made in house
T7 sequence (P27986 333-428 T371S): as the sequence (P27986 333-428 I338V) above, with V6I, T39S counted along it
Procedure: as §1, §2, §3, §4, §5

[7] = target: T8, N-SH2 domain of PI3K, L59A variant (Homo sapiens, UniProt P27986, L380A); experiment: Stopped-flow binding kinetics, N-SH2 L59A
T8 construct: made in house
T8 sequence (P27986 333-428 L380A): as the sequence (P27986 333-428 I338V) above, with V6I, L48A counted along it
Procedure: as §1, §2, §6, §7

[8] = target: T9, N-SH2 domain of PI3K, I62V variant (Homo sapiens, UniProt P27986, I383V); experiment: Stopped-flow binding kinetics, N-SH2 I62V
T9 construct: made in house
T9 sequence (P27986 333-428 I383V): as the sequence (P27986 333-428 I338V) above, with V6I, I51V counted along it
Procedure: as §1, §2, §3, §4, §5

[9] = target: T10, N-SH2 domain of PI3K, L75A variant (Homo sapiens, UniProt P27986, L396A); experiment: Stopped-flow binding kinetics, N-SH2 L75A
T10 construct: made in house
T10 sequence (P27986 333-428 L396A): as the sequence (P27986 333-428 I338V) above, with V6I, L64A counted along it
Procedure: as §1, §2, §3, §4, §5

[10] = target: T11, N-SH2 domain of PI3K, T76S variant (Homo sapiens, UniProt P27986, T397S); experiment: Stopped-flow binding kinetics, N-SH2 T76S
T11 construct: made in house
T11 sequence (P27986 333-428 T397S): as the sequence (P27986 333-428 I338V) above, with V6I, T65S counted along it
Procedure: as §1, §2, §3, §4, §5

[11] = target: T12, N-SH2 domain of PI3K, L99A variant (Homo sapiens, UniProt P27986, L420A); experiment: Stopped-flow binding kinetics, N-SH2 L99A
T12 construct: made in house
T12 sequence (P27986 333-428 L420A): as the sequence (P27986 333-428 I338V) above, with V6I, L88A counted along it
Procedure: as §1, §2, §6, §7

[12] = displacement experiment, pH 7.4, 300 mM NaCl
[13] = stopped-flow FRET, 1 μM dansylated peptide, 50 mM Hepes pH 7.4, 300 mM NaCl
[14] = stopped-flow kinetics, pH 7.4, 300 mM NaCl

T1 sequence (P27986 333-428 limits assumed): as the sequence (P27986 333-428 I338V) above, with V6I counted along it

## CSCC[C@H](NC(=O)[C@@H]1CCCN1C(=O)[C@@H](NC(=O)[C@H](Cc1ccc(OP(=O)(O)O)cc1)NC(=O)[C@H](CC(N)=O)NC(=O)[C@H](CC(=O)O)NC(=O)[C@H](CCC(=O)O)NC(=O)[C@H](CO)NC(=O)[C@H](CC(N)=O)NC(=O)[C@@H](N)[C@@H](C)O)C(C)C)C(=O)N[C@@H](CC(N)=O)C(=O)N1CCC[C@H]1C(=O)NCC(=O)O [Gab2_448–460] (HELM PEPTIDE1{T.N.S.E.D.N.[O=C([C@H](Cc1ccc(OP(=O)(O)O)cc1)N[*:1])[*:2]].V.P.M.N.P.G}$$$$V2.0)
N-SH2 domain of PI3K, WT; displacement of 1 μM complex by 50 μM non-dansylated Gab2_448–460, 50 mM Hepes pH 7.4, 300 mM NaCl
  koff: 3.9 ± 0.2 s⁻¹
N-SH2 domain of PI3K, WT; from stopped-flow kinetics, pH 7.4, 300 mM NaCl
  Kd: 200 ± 100 nM
N-SH2 domain of PI3K, WT; stopped-flow FRET, 1 μM dansylated peptide vs excess N-SH2, 50 mM Hepes pH 7.4, 300 mM NaCl, slope of kobs
  kon: 1.95e+07 ± 1e+06 M⁻¹ s⁻¹
[1]; [12]
  koff: 4.5 ± 0.2 s⁻¹
[1]; [13]
  kon: 2.44e+07 ± 1.7e+06 M⁻¹ s⁻¹
[1]; [14]
  Kd: 200 ± 100 nM
[2]; [12]
  koff: 7.4 ± 0.4 s⁻¹
[2]; [13]
  kon: 1.12e+07 ± 400000 M⁻¹ s⁻¹
[2]; [14]
  Kd: 700 ± 100 nM
[3]; [12]
  koff: 3.7 ± 0.2 s⁻¹
[3]; [13]
  kon: 2.92e+07 ± 2e+06 M⁻¹ s⁻¹
[3]; [14]
  Kd: 100 ± 100 nM
[4]; [12]
  koff: 6.7 ± 0.3 s⁻¹
[4]; [13]
  kon: 7e+06 ± 600000 M⁻¹ s⁻¹
[4]; [14]
  Kd: 1000 ± 100 nM
[5]; [12]
  koff: 23 ± 1 s⁻¹
[5]; [13]
  kon: 6.4e+06 ± 500000 M⁻¹ s⁻¹
[5]; [14]
  Kd: 3700 ± 100 nM
[6]; [12]
  koff: 9.3 ± 0.5 s⁻¹
[6]; [13]
  kon: 1.56e+07 ± 800000 M⁻¹ s⁻¹
[6]; [14]
  Kd: 600 ± 100 nM
[7]; [12]
  koff: 21 ± 1 s⁻¹
[7]; [13]
  kon: 6.7e+06 ± 1e+06 M⁻¹ s⁻¹
[7]; [14]
  Kd: 3200 ± 200 nM
[8]; [12]
  koff: 4.5 ± 0.2 s⁻¹
[8]; [13]
  kon: 1.55e+07 ± 1.4e+06 M⁻¹ s⁻¹
[8]; [14]
  Kd: 300 ± 100 nM
[9]; [12]
  koff: 6.1 ± 0.3 s⁻¹
[9]; [13]
  kon: 8.1e+06 ± 1.1e+06 M⁻¹ s⁻¹
[9]; [14]
  Kd: 800 ± 100 nM
[10]; [12]
  koff: 5.3 ± 0.3 s⁻¹
[10]; [13]
  kon: 1.69e+07 ± 1.3e+06 M⁻¹ s⁻¹
[10]; [14]
  Kd: 300 ± 100 nM
[11]; [12]
  koff: 160 ± 10 s⁻¹
[11]; [13]
  kon: 8.2e+06 ± 1.7e+06 M⁻¹ s⁻¹
[11]; [14]
  Kd: 20000 ± 200 nM
